Assays:
Type in all cases: in vivo
VERPE: Veronica persica [1] = assay: Post-emergence herbicidal effect; conditions: dosage 320 g/ha
Procedure, shortened: (§1)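 Weeds grown from seed in sandy loam in the greenhouse were sprayed at the one-leaf stage, 2 to 3 weeks after sowing. Compounds formulated as WP or EC were applied as aqueous suspension or emulsion with 0.5% additive at 600 l/ha. Activity was scored visually after about 3 weeks versus untreated controls (100% = dead, 0% = as control).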

STEME: Stellaria media [2] = assay: Post-emergence herbicidal effect; conditions: dosage 320 g/ha
Procedure, shortened: as §1

VIOTR: Viola tricolor [3] = assay: Post-emergence herbicidal effect; conditions: dosage 320 g/ha
Procedure, shortened: as §1

[4] = tested on: ECHCG: Echinochloa crus-galli; assay: Post-emergence herbicidal effect; conditions: dosage 320 g/ha
Procedure, shortened: as §1

[5] = tested on: ABUTH: Abutilon theophrasti; assay: Post-emergence herbicidal effect; conditions: dosage 320 g/ha
Procedure, shortened: as §1

SETVI: Setaria viridis [6] = assay: Post-emergence herbicidal effect; conditions: dosage 320 g/ha
Procedure, shortened: as §1

[7] = tested on: AMARE: Amaranthus retroflexus; assay: Post-emergence herbicidal effect; conditions: dosage 320 g/ha
Procedure, shortened: as §1

VERPE: Veronica persica [8] = assay: Pre-emergence herbicidal effect; conditions: dosage 320 g/ha
Procedure, shortened: (§2)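 Scoring is visual, as percent effect compared with untreated controls, about 3 weeks after application to the soil covering freshly sown seeds. Compounds were delivered as aqueous WP or EC preparations with 0.5% additive, 600 l/ha spray volume.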

STEME: Stellaria media [9] = assay: Pre-emergence herbicidal effect; conditions: for Herbicidal action against STEME: pre-emergence, dosage 320 g/ha
Procedure, shortened: as §2

VIOTR: Viola tricolor [10] = assay: Pre-emergence herbicidal effect; conditions: dosage 320 g/ha
Procedure, shortened: as §2

[11] = tested on: ECHCG: Echinochloa crus-galli; assay: Pre-emergence herbicidal effect; conditions: for Herbicidal action against ECHCG: dosage 320 g/ha
Procedure, shortened: as §2

[12] = tested on: ABUTH: Abutilon theophrasti; assay: Pre-emergence herbicidal effect; conditions: for Herbicidal action against ABUTH: dosage 320 g/ha
Procedure, shortened: as §2

HORMU: Hordeum murinum = assay: Pre-emergence herbicidal effect; conditions: for Herbicidal action against HORMU: pre-emergence, dosage 320 g/ha
Procedure, shortened: as §2

LOLRI: Lolium rigidum = assay: Pre-emergence herbicidal effect; conditions: for Herbicidal action against LOLRI: dosage 320 g/ha
Procedure, shortened: as §2

[13] = tested on: MATIN: Matricaria inodora; assay: Pre-emergence herbicidal effect; conditions: for Herbicidal action against MATIN: pre-emergence, dosage 320 g/ha
Procedure, shortened: as §2

PHBPU: Ipomoea purpurea = assay: Pre-emergence herbicidal effect; conditions: for Herbicidal action against PHBPU: dosage 320 g/ha
Procedure, shortened: as §2

SETVI: Setaria viridis [14] = assay: Pre-emergence herbicidal effect; conditions: for Herbicidal action against SETVI: dosage 320 g/ha
Procedure, shortened: as §2

[15] = tested on: ALOMY: Alopecurus myosuroides; assay: Pre-emergence herbicidal effect; conditions: for Herbicidal action against ALOMY: dosage 320 g/ha
Procedure, shortened: as §2

[16] = tested on: AMARE: Amaranthus retroflexus; assay: Pre-emergence herbicidal effect; conditions: for Herbicidal action against AMARE: pre-emergence, dosage 320 g/ha
Procedure, shortened: as §2

[17] = tested on: POLCO: Polygonum convolvulus; assay: Pre-emergence herbicidal effect; conditions: for Herbicidal action against POLCO: dosage 320 g/ha
Procedure, shortened: as §2

AVEFA: Avena fatua = assay: Pre-emergence herbicidal effect; conditions: dosage 320 g/ha
Procedure, shortened: as §2

[18] = Table 4b, pre-emergence as titled, dosage 80 g of a.i./ha
[19] = Table 4a, pre-emergence, dosage 20 g of a.i./ha
[20] = Table 4a, dosage 20 g of a.i./ha

SMILES | Herbicidal action against VERPE (VERPE: Veronica persica [1]) | Herbicidal action against STEME (STEME: Stellaria media [2]) | Herbicidal action against VIOTR (VIOTR: Viola tricolor [3]) | Herbicidal action against ECHCG [4] | Herbicidal action against ABUTH [5] | Herbicidal action against SETVI (SETVI: Setaria viridis [6]) | Herbicidal action against AMARE [7] | Herbicidal action against VERPE (VERPE: Veronica persica [8]) | Herbicidal action against STEME (STEME: Stellaria media [9]) | Herbicidal action against VIOTR (VIOTR: Viola tricolor [10]) | Herbicidal action against ECHCG ([11]; pre-emergence) | Herbicidal action against ABUTH [12] | Herbicidal action against HORMU (HORMU: Hordeum murinum) | Herbicidal action against LOLRI (LOLRI: Lolium rigidum) | Herbicidal action against MATIN [13] | Herbicidal action against PHBPU (PHBPU: Ipomoea purpurea) | Herbicidal action against SETVI (SETVI: Setaria viridis [14]; pre-emergence) | Herbicidal action against ALOMY ([15]; pre-emergence) | Herbicidal action against AMARE [16] | Herbicidal action against POLCO [17] | also measured
CC#CC(C)(O)c1cnc(N[C@H]2c3cc(C)ccc3C[C@@H]2C)nc1 (some centres unmarked) [Example 1.22] | 90% | 90% | 90% | 100% | 90% | 100% | 90% | 100% | 100% | 100% | 100% | 100% | 100% | 100% | 100% | 100% | 100% | 100% | 100% | 100% | Herbicidal action against AVEFA (AVEFA: Avena fatua): 100%
COC(C)(C)c1cnc(N[C@H]2c3cc(C)ccc3C[C@@H]2C)nc1 [Example 1.24] | 90% | 100% | 90% | 100% | 90% | 90% | 90% | 100% | 100% | 100% | 100% | 100% | 100% | 100% | 100% | 90% | 100% | 100% | 100% | 100% | Herbicidal action against AVEFA (AVEFA: Avena fatua): 100%
CCc1ccc2c(c1)[C@H](Nc1ncc(C(C)(C)O)cn1)CC2 [Example 1.31] | 90% | 100% | 90% | 100% | 90% | 90% | 100% | 100% | 100% | 100% | 100% | 100% | 100% | 100% | 100% | 100% | 100% | 100% | 100% | 100% | Herbicidal action against AVEFA (AVEFA: Avena fatua): 100%
Cc1ccc2c(c1)[C@H](Nc1ncc(C(C)O)c(C)n1)CCC2 (some centres unmarked) [Example 1.48] | 90% | 90% | 80% | 100% | 80% | 90% | 90% | 100% | 100% | 100% | 100% | 100% | 100% | 100% | 100% | 90% | 100% | 100% | 100% | 100% | Herbicidal efficacy against STEME (STEME: Stellaria media [9]; [18]): 80; Herbicidal efficacy against ECHCG [11, 19]: 80; Herbicidal efficacy against ECHCG [11, 18]: 90; Herbicidal efficacy against ABUTH [12, 20]: 90; Herbicidal efficacy against HORMU (HORMU: Hordeum murinum; [18]): 20; Herbicidal efficacy against LOLRI (LOLRI: Lolium rigidum; [20]): 90; Herbicidal efficacy against MATIN [13, 18]: 70; Herbicidal efficacy against PHBPU (PHBPU: Ipomoea purpurea; [20]): 70; Herbicidal efficacy against SETVI (SETVI: Setaria viridis [14]; [19]): 100; Herbicidal efficacy against SETVI (SETVI: Setaria viridis [14]; [18]): 70; Herbicidal efficacy against ALOMY [15, 19]: 70; Herbicidal efficacy against ALOMY [15, 18]: 50; Herbicidal efficacy against AMARE [16, 18]: 80; Herbicidal efficacy against POLCO [17, 20]: 100; Herbicidal action against AVEFA (AVEFA: Avena fatua): 90%
CCc1ccc2c(c1)[C@H](Nc1ncc(C(C)O)c(C)n1)CC2 (some centres unmarked) [Example 1.50] | 90% | 100% | 90% | 100% | 80% | 90% | 90% | 100% | 100% | 100% | 100% | 100% | 90% | 100% | 100% | 100% | 100% | 100% | 100% | 100% | Herbicidal action against AVEFA (AVEFA: Avena fatua): 100%
Cc1nc(N[C@@H]2CCc3ccccc32)ncc1C(C)(C)O [Example 1.54] | 90% | 90% | 90% | 100% | 80% | 80% | 90% | 100% | 100% | 100% | 100% | 100% | 100% | 100% | 100% | 100% | 100% | 100% | 100% | 100% | Herbicidal action against AVEFA (AVEFA: Avena fatua): 80%

From patent publication US11477982B2, “2-amino-5-oxyalkyl-pyrimidine derivatives and their use for controlling undesired plant growth” (Bayer CropScience Aktiengesellschaft, priority 2017, dated 2022)
